# Test results from patent US4551445A, “Derivatives of arginine vasopressin antagonists” (The Medical College of Ohio, priority 1983, dated 1985).
# Starred links: 1 amine or outer side, 2 acyl side, 3 side chain; linkers in the order of their positions; H or OH if unused. Positions of bridges follow the written chain, without caps; N, C: chain ends. Non-standard residues stand in square brackets, D forms with d. Residues, ends and D or L forms follow the SMILES beside them. X1 = O=C(CC1(S[*:2])CCCCC1)[*:1]; Cha = N[C@@H](CC1CCCCC1)C(=O)O; Nle = CCCC[C@H](N)C(=O)O; Orn = NCCC[C@H](N)C(=O)O; Abu = CC[C@H](N)C(=O)O
# Test system: antidiuretic response to arginine vasopressin (ADH)
# Assay: Anti-antidiuretic: antagonism of the antidiuretic response to subsequent injections of vasopressin
# Assay type: in vivo, rats
# Method: Activity as antidiuretic agonists was determined by intravenous injection of the compounds being evaluated in ethanol-anesthesized water-loaded rats in accordance with Sawyer, Endocrinology, vol. 63 (1958) at 694. Antagonism of the response to subsequent injections of vasopressin was tested as described by Sawyer et al., Science, vol. 212 (1981) at 49.
# Antagonistic potencies were determined and expressed as "effective doses" and pA2 values. The "effective dose" is defined as the dose (in nanomoles per kilogram) that reduces the response seen from 2x units of agonist injected 20 min after the dose of antagonist to the response with 1x units of agonist. Estimated in vivo "pA2 " values represent the negative logarithms of the effective doses, divided by the estimated volume of distribution (67 ml/kg).
# [1] = Table 2, estimated in vivo pA2, volume of distribution 67 ml/kg
SMILES,Anti-Antidiuretic pA2 [1],other results
"CC[C@@H](C)[C@H]1NC(=O)CC2(CCCCC2)SSC[C@@H](C(=O)N2CCC[C@H]2C(=O)N[C@@H](CCCNC(=N)N)C(=O)NCC(N)=O)NC(=O)[C@H](CC(N)=O)NC(=O)[C@H]([C@@H](C)CC)NC(=O)[C@H](Cc2ccccc2)NC1=O [d(CH2)5 D-Ile^2 Ile^4 AVP, [1-(β-mercapto-β,β-cyclopentamethylenepropionic acid), 2-D-isoleucine, 4-isoleucine]-arginine vasopressin] ([dI]FINCPRG-NH2; linker N-5 via X1)",8.04,
CC(C)[C@@H]1NC(=O)[C@H](Cc2ccccc2)NC(=O)[C@@H](Cc2ccccc2)NC(=O)CC2(CCCCC2)SSC[C@@H](C(=O)N2CCC[C@H]2C(=O)N[C@@H](CCCNC(=N)N)C(=O)NCC(N)=O)NC(=O)[C@H](CC(N)=O)NC1=O [d(CH2)5 D-Phe^2 VAVP] ([dF]FVNCPRG-NH2; linker N-5 via X1),8.06,
"CCCC[C@@H]1NC(=O)[C@H](Cc2ccccc2)NC(=O)[C@@H](Cc2ccccc2)NC(=O)CC2(CCCCC2)SSC[C@@H](C(=O)N2CCC[C@H]2C(=O)N[C@@H](CCCNC(=N)N)C(=O)NCC(N)=O)NC(=O)[C@H](CC(N)=O)NC1=O [d(CH2)5 D-Phe^2 Nle^4 AVP, [1-(β-mercapto-β,β-cyclopentamethylenepropionic acid), 2-D-phenylalanine, 4-norleucine]-arginine vasopressin] ([dF]F[Nle]NCPRG-NH2; linker N-5 via X1)",7.12,
"CC(C)[C@@H]1NC(=O)[C@H](Cc2ccccc2)NC(=O)[C@@H](Cc2ccc(O)cc2)NC(=O)CC2(CCCCC2)SSC[C@@H](C(=O)N2CCC[C@H]2C(=O)N[C@@H](CCCNC(=N)N)C(=O)NCC(N)=O)NC(=O)[C@H](CC(N)=O)NC1=O [d(CH2)5 --D-TyrVAVP, [1-(β-mercapto-β,β-cyclopentamethylenepropionic acid), 2-D-tyrosine, 4-valine]-arginine vasopressin] ([dY]FVNCPRG-NH2; linker N-5 via X1)",,"Anti-Antidiuretic pA2 (Table 1, estimated in vivo pA2, volume of distribution 67 ml/kg): 7.51 ± 0.08"
"CC[C@H](C)[C@@H]1NC(=O)[C@H](Cc2ccccc2)NC(=O)[C@@H](Cc2ccccc2)NC(=O)CC2(CCCCC2)SSC[C@@H](C(=O)N2CCC[C@H]2C(=O)N[C@@H](CCCNC(=N)N)C(=O)NCC(N)=O)NC(=O)[C@H](CC(N)=O)NC1=O [d(CH2)5 D-Phe^2 Ile^4 AVP, [1-(β-mercapto-β,β-cyclopentamethylenepropionic acid), 2-D-phenylalanine, 4-isoleucine]-arginine vasopressin] ([dF]FINCPRG-NH2; linker N-5 via X1)",8.24,
"CC[C@@H]1NC(=O)[C@H](Cc2ccccc2)NC(=O)[C@@H]([C@H](C)CC)NC(=O)CC2(CCCCC2)SSC[C@@H](C(=O)N2CCC[C@H]2C(=O)N[C@@H](CCCNC(=N)N)C(=O)NCC(N)=O)NC(=O)[C@H](CC(N)=O)NC1=O [d(CH2)5 D-Ile^2 Abu^4 AVP, [1-(β-mercapto-β,β-cyclopentamethylenepropionic acid), 2-D-isoleucine, 4-α-aminobutyric acid]-arginine vasopressin] ([dI]F[Abu]NCPRG-NH2; linker N-5 via X1)",8.22,
CCOc1ccc(C[C@@H]2NC(=O)CC3(CCCCC3)SSC[C@@H](C(=O)N3CCC[C@H]3C(=O)N[C@@H](CCCCN)C(=O)NCC(N)=O)NC(=O)[C@H](CC(N)=O)NC(=O)[C@H](C(C)C)NC(=O)[C@H](Cc3ccccc3)NC2=O)cc1 [d(CH2)5 Tyr(Et)^2 Val^4 Lys^8 VP] (Y(Et)FVNCPKG-NH2; linker N-5 via X1),,"Anti-Antidiuretic pA2 (rat, in vivo): 7.29"
"N=C(N)NCCC[C@H](NC(=O)[C@@H]1CCCN1C(=O)[C@@H]1CSSC2(CCCCC2)CC(=O)N[C@H](Cc2ccccc2)C(=O)N[C@@H](Cc2ccccc2)C(=O)N[C@@H](CCCCN)C(=O)N[C@@H](CC(N)=O)C(=O)N1)C(=O)NCC(N)=O [d(CH2)5 D-Phe^2 Lys^4 AVP, [1-(β-mercapto-β,β-cyclopentamethylenepropionic acid), 2-D-phenylalanine, 4-lysine]-arginine vasopressin] ([dF]FKNCPRG-NH2; linker N-5 via X1)",7.22,
"CC[C@@H](C)[C@H]1NC(=O)CC2(CCCCC2)SSC[C@@H](C(=O)N2CCC[C@H]2C(=O)N[C@@H](CCCNC(=N)N)C(=O)NCC(N)=O)NC(=O)[C@H](CC(N)=O)NC(=O)[C@H]([C@@H](C)O)NC(=O)[C@H](Cc2ccccc2)NC1=O [d(CH2)5 D-Ile^2 Thr^4 AVP, [1-(β-mercapto-β,β-cyclopentamethylenepropionic acid), 2-D-isoleucine, 4-threonine]-arginine vasopressin] ([dI]FTNCPRG-NH2; linker N-5 via X1)",7.91,
"N=C(N)NCCC[C@H](NC(=O)[C@@H]1CCCN1C(=O)[C@@H]1CSSC2(CCCCC2)CC(=O)N[C@H](Cc2ccccc2)C(=O)N[C@@H](Cc2ccccc2)C(=O)N[C@@H](CC2CCCCC2)C(=O)N[C@@H](CC(N)=O)C(=O)N1)C(=O)NCC(N)=O [d(CH2)5 D-Phe^2 Cha^4 AVP, [1-(β-mercapto-β,β-cyclopentamethylenepropionic acid), 2-D-phenylalanine, 4-cyclohexylalanine]-arginine vasopressin] ([dF]F[Cha]NCPRG-NH2; linker N-5 via X1)",7.19,
"N=C(N)NCCC[C@H](NC(=O)[C@@H]1CCCN1C(=O)[C@@H]1CSSC2(CCCCC2)CC(=O)N[C@H](Cc2ccccc2)C(=O)N[C@@H](Cc2ccccc2)C(=O)N[C@@H](Cc2ccc(O)cc2)C(=O)N[C@@H](CC(N)=O)C(=O)N1)C(=O)NCC(N)=O [d(CH2)5 D-Phe^2 Tyr^4 AVP, [1-(β-mercapto-β,β-cyclopentamethylenepropionic acid), 2-D-phenylalanine, 4-tyrosine]-arginine vasopressin] ([dF]FYNCPRG-NH2; linker N-5 via X1)",~ 5.57,
"CC[C@@H](C)[C@H]1NC(=O)CC2(CCCCC2)SSC[C@@H](C(=O)N2CCC[C@H]2C(=O)N[C@@H](CCCNC(=N)N)C(=O)NCC(N)=O)NC(=O)[C@H](CC(N)=O)NC(=O)[C@H](CC(C)C)NC(=O)[C@H](Cc2ccccc2)NC1=O [d(CH2)5 D-Ile^2 Leu^4 AVP, [1-(β-mercapto-β,β-cyclopentamethylenepropionic acid), 2-D-isoleucine, 4-leucine]-arginine vasopressin] ([dI]FLNCPRG-NH2; linker N-5 via X1)",6.80,
"C[C@@H]1NC(=O)[C@H](Cc2ccccc2)NC(=O)[C@@H](Cc2ccccc2)NC(=O)CC2(CCCCC2)SSC[C@@H](C(=O)N2CCC[C@H]2C(=O)N[C@@H](CCCNC(=N)N)C(=O)NCC(N)=O)NC(=O)[C@H](CC(N)=O)NC1=O [d(CH2)5 D-Phe^2 Ala^4 AVP, [1-(β-mercapto-β,β-cyclopentamethylenepropionic acid), 2-D-phenylalanine, 4-alanine]-arginine vasopressin] ([dF]FANCPRG-NH2; linker N-5 via X1)",7.52,
"N=C(N)NCCC[C@H](NC(=O)[C@@H]1CCCN1C(=O)[C@@H]1CSSC2(CCCCC2)CC(=O)N[C@H](Cc2ccccc2)C(=O)N[C@@H](Cc2ccccc2)C(=O)NCC(=O)N[C@@H](CC(N)=O)C(=O)N1)C(=O)NCC(N)=O [d(CH2)5 D-Phe^2 Gly^4 AVP, [1-(β-mercapto-β,β-cyclopentamethylenepropionic acid), 2-D-phenylalanine, 4-glycine]-arginine vasopressin] ([dF]FGNCPRG-NH2; linker N-5 via X1)",5.85,
"N=C(N)NCCC[C@H](NC(=O)[C@@H]1CCCN1C(=O)[C@@H]1CSSC2(CCCCC2)CC(=O)N[C@H](Cc2ccccc2)C(=O)N[C@@H](Cc2ccccc2)C(=O)N[C@@H](Cc2ccccc2)C(=O)N[C@@H](CC(N)=O)C(=O)N1)C(=O)NCC(N)=O [d(CH2)5 D-Phe^2 Phe^4 AVP, [1-(β-mercapto-β,β-cyclopentamethylenepropionic acid), 2-D-phenylalanine, 4-phenylalanine]-arginine vasopressin] ([dF]FFNCPRG-NH2; linker N-5 via X1)",6.07,
"CC(C)C[C@@H]1NC(=O)[C@H](Cc2ccccc2)NC(=O)[C@@H](Cc2ccccc2)NC(=O)CC2(CCCCC2)SSC[C@@H](C(=O)N2CCC[C@H]2C(=O)N[C@@H](CCCNC(=N)N)C(=O)NCC(N)=O)NC(=O)[C@H](CC(N)=O)NC1=O [d(CH2)5 D-Phe^2 Leu^4 AVP, [1-(β-mercapto-β,β-cyclopentamethylenepropionic acid), 2-D-phenylalanine, 4-leucine]-arginine vasopressin] ([dF]FLNCPRG-NH2; linker N-5 via X1)",6.07,
CC[C@@H](C)[C@H]1NC(=O)CC2(CCCCC2)SSC[C@@H](C(=O)N2CCC[C@H]2C(=O)N[C@@H](CCCN)C(=O)NCC(N)=O)NC(=O)[C@H](CC(N)=O)NC(=O)[C@H](C(C)C)NC(=O)[C@H](Cc2ccccc2)NC1=O [d(CH2)5 D-Ile^2 Val^4 Orn^8 VP] ([dI]FVNCP[Orn]G-NH2; linker N-5 via X1),7.66,
"N=C(N)NCCC[C@H](NC(=O)[C@@H]1CCCN1C(=O)[C@@H]1CSSC2(CCCCC2)CC(=O)N[C@H](Cc2ccccc2)C(=O)N[C@@H](Cc2ccccc2)C(=O)N[C@@H](CCC(N)=O)C(=O)N[C@@H](CC(N)=O)C(=O)N1)C(=O)NCC(N)=O [d(CH2)5 D-Phe^2 AVP, [1-(β-mercapto-β,β-cyclopentamethylenepropionic acid), 2-D-phenylalanine]-arginine vasopressin] ([dF]FQNCPRG-NH2; linker N-5 via X1)",7.21,
CCOc1ccc(C[C@H]2NC(=O)CC3(CCCCC3)SSC[C@@H](C(=O)N3CCC[C@H]3C(=O)N[C@@H](CCCCN)C(=O)NCC(N)=O)NC(=O)[C@H](CC(N)=O)NC(=O)[C@H](C(C)C)NC(=O)[C@H](Cc3ccccc3)NC2=O)cc1 [d(CH2)5 D-Tyr(Et)^2 Val^4 Lys^8 VP] ([dY](Et)FVNCPKG-NH2; linker N-5 via X1),,"Anti-Antidiuretic pA2 (rat, in vivo): 7.72"
